# Experimental data: the supplement of paper PMC10307832
# Assays:
# Assay in all cases: relative viability (nuclei count vs DMSO), 5 days (fraction); higher = more cells survive
# [1] = compound: C[C@@]1(C(=O)Nc2ccc(F)nc2)CCCN1c1nc(Nc2cc(C3CC3)n[nH]2)c2cccn2n1 + Cc1nc(Nc2ncc(C(=O)Nc3c(C)cccc3Cl)s2)cc(N2CCN(CCO)CC2)n1 [Dasatinib] (partner 0.075 µM)
# How it was run: (§1)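 Relative viability divides the nuclei count in treated wells by that in vehicle wells. Lung cancer cell lines were seeded in 1536-well plates, dosed by pin tool the next day, and fixed and stained after 5 days in one step with final 0.05% Triton X-100, 1% formaldehyde and 1 ug/ml Hoechst. Dosing was a single drug or a fixed anchor-drug dose plus five library-drug doses (not always all listed) in √10 steps, and values are medians of duplicate plates imaged at 4×.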
# [2] = compound: CC1(C)CNc2cc(NC(=O)c3cccnc3NCc3ccncc3)ccc21 [Motesanib] + C[C@@H](Oc1cc(-c2cnn(C3CCNCC3)c2)cnc1N)c1c(Cl)ccc(F)c1Cl [Crizotinib] (partner 1 µM)
# How it was run: as §1
# [3] = compound: C[C@@]1(C(=O)Nc2ccc(F)nc2)CCCN1c1nc(Nc2cc(C3CC3)n[nH]2)c2cccn2n1 + CCNC(=O)c1noc(-c2cc(C(C)C)c(O)cc2O)c1-c1ccc(CN2CCOCC2)cc1 [Luminespib] (partner 0.01 µM)
# How it was run: as §1
# [4] = compound: C[C@@]1(C(=O)Nc2ccc(F)nc2)CCCN1c1nc(Nc2cc(C3CC3)n[nH]2)c2cccn2n1 + CC1(C)CCC(c2ccc(Cl)cc2)=C(CN2CCN(c3ccc(C(=O)NS(=O)(=O)c4ccc(N[C@H](CCN5CCOCC5)CSc5ccccc5)c(S(=O)(=O)C(F)(F)F)c4)cc3)CC2)C1 [Navitoclax] (partner 0.5 µM)
# How it was run: as §1
Cell Line,relative viability ([1]; first compound 0.04 µM),relative viability ([1]; first compound 0.1265 µM),relative viability ([1]; first compound 0.4 µM),relative viability ([1]; first compound 1.265 µM),relative viability ([2]; first compound 0.01 µM),relative viability ([2]; first compound 0.03162 µM),relative viability ([2]; first compound 0.1 µM),relative viability ([2]; first compound 0.3162 µM),relative viability ([2]; first compound 1 µM),relative viability ([3]; first compound 0.04 µM),relative viability ([3]; first compound 0.1265 µM),relative viability ([3]; first compound 0.4 µM),relative viability ([3]; first compound 1.265 µM),relative viability ([4]; first compound 0.04 µM),relative viability ([4]; first compound 0.1265 µM),relative viability ([4]; first compound 0.4 µM),relative viability ([4]; first compound 1.265 µM)
201T,0.326,0.29,0.301,0.324,1.02,1.07,1.04,1.04,1.06,0.878,0.84,0.799,1.02,1.15,1.09,1.11,1.16
A549,–,–,–,–,0.741,0.663,0.746,0.754,0.777,–,–,–,–,0.95,0.902,0.742,0.688
A-427,0.632,0.557,0.617,0.453,0.933,0.892,0.983,0.888,1.04,1.03,0.957,0.639,0.881,0.885,0.988,1.03,0.915
ABC-1,0.51,0.395,0.366,0.204,0.996,1.03,1.26,1.14,1.32,0.63,0.519,0.244,0.308,–,–,–,–
BEN,0.32,0.382,0.329,0.271,0.792,0.85,0.803,0.928,0.978,0.381,0.487,0.641,0.325,0.0599,0.0547,0.0804,0.0539
CAL-12T,0.239,0.146,0.101,0.0918,0.627,0.56,0.664,0.758,0.559,0.446,0.391,0.487,0.116,1.18,1.16,1.14,1.06
COR-L23,0.433,0.334,0.214,0.219,0.512,0.639,0.703,0.643,0.547,0.714,0.65,0.449,0.45,1.02,1.06,0.821,0.681
COR-L 105,0.3,0.208,0.185,0.18,0.981,0.739,0.743,0.73,0.756,0.672,0.62,0.624,0.685,0.788,0.477,0.65,0.607
Calu-6,–,–,–,–,0.794,0.744,0.78,0.758,0.783,–,–,–,–,0.83,0.637,0.62,0.141
ChaGo-K-1,0.505,0.486,0.522,0.443,–,1.16,1.1,1.18,1.15,0.519,0.503,0.455,0.613,0.917,0.616,1.06,0.673
EBC-1,–,–,–,–,0.178,0.19,0.205,0.193,0.181,–,–,–,–,0.342,0.315,0.315,0.197
EKVX,0.439,0.4,0.32,0.294,0.988,0.889,0.916,1.09,0.898,0.804,0.67,0.683,0.935,0.944,0.728,0.785,0.593
EMC-BAC-2,0.242,0.212,0.136,0.167,0.761,0.656,0.765,0.739,0.674,0.863,0.941,0.713,0.857,1.13,1.12,0.947,1.22
EPLC-272H,0.275,–,0.157,0.084,0.935,0.969,1.05,1.04,0.944,0.214,–,0.187,0.272,1.07,1.04,1.07,1.21
H3255,0.36,0.361,0.282,0.235,0.793,0.883,0.986,0.838,0.863,1.02,0.982,0.89,0.811,0.684,0.463,0.49,0.36
HARA,0.297,0.203,0.188,0.163,1.1,0.993,1.06,1.1,1.04,0.72,0.73,0.585,0.881,1.16,1.18,1.17,1.16
HCC-15,0.458,0.233,0.271,0.297,0.778,0.782,0.799,0.835,0.838,0.481,0.364,0.55,0.417,0.663,0.561,0.528,0.58
HCC-44,–,–,–,–,0.883,0.8,0.801,0.765,0.901,0.829,0.744,0.623,0.732,0.804,0.884,0.68,0.903
HCC-78,0.421,0.269,0.256,0.184,0.378,0.352,0.37,0.326,0.384,–,–,–,–,0.7,0.505,0.308,0.268
HCC-366,0.374,0.141,0.201,0.061,0.575,0.487,0.605,0.556,0.596,–,–,–,–,1.12,0.966,0.688,1.19
HCC-827,0.34,0.395,0.222,0.339,0.99,0.985,0.998,0.955,0.93,0.747,0.388,0.529,1,1.02,1,1.01,1
